We go through one compound from patent US11331288B2, “Conditioning irradiated tissue for increasing vascularity” (THE BOARD OF TRUSTEES OF THE LELAND STANFORD JUNIOR …, priority 2017, dated 2022).

The subject of series [1] is irradiated scalp skin. Kind of series: Dermal thickness of irradiated skin, H&E stained sections. As to conditions: after DFO treatment, before fat grafting; saline 256.71±16.76; not significantly less. The format is in vivo, mice. As for the experimental part: Adult 60-day-old male Crl:NU-Fox1^NU immunocompromised mice were used for experiments in this study. Twelve mice were treated with a total of 30 Gy external beam radiation, delivered as six fractionated doses of 5 Gy each over 12 days, followed by 5 weeks of recovery. An additional six non-irradiated mice were used as healthy controls for laser Doppler analysis (LDA) and skin analysis. Irradiated mice were divided into two treatment groups: a DFO experimental group and saline control group. Following recovery, mice underwent injection of either DFO (1 mg in 100 μl saline) or 100 μl of saline alone beneath the dermis every other day for a total of seven treatments. […] For skin analysis, scalp skin biopsy was harvested from both treatment groups following completion of radiation and then 8 weeks following fat grafting. […] Vascularity was determined with CD31 immunoflourescent staining (1:100 Ab28364; Abcam; Cambridge, Mass. and 1:200 AF547; Thermo Fisher Scientific; Waltham, Mass.) and DAPI counterstaining to visualize cell nuclei. Fluorescent images were obtained using an X-Cite 120 Fluorescence Illumination System (Lumen Dynamics Group, Inc.; Ontario, Canada) at the 20× objective. Quantification of CD31 staining was performed using ImageJ (National Institutes of Health; Bethesda, Md.), with pixel-positive area per high power field measured to determine vascular density (11). […]

Series [2] has as its system fat grafts in irradiated scalp. In words: Fat graft volume retention by micro-CT in DFO preconditioned irradiated scalp (Example 1). It is filed as in vivo, mice. As for the experimental part:
(§1) Adult 60-day-old male Crl:NU-Fox1^NU immunocompromised mice were used for experiments in this study. Twelve mice were treated with a total of 30 Gy external beam radiation, delivered as six fractionated doses of 5 Gy each over 12 days, followed by 5 weeks of recovery. An additional six non-irradiated mice were used as healthy controls for laser Doppler analysis (LDA) and skin analysis. Irradiated mice were divided into two treatment groups: a DFO experimental group and saline control group. Following recovery, mice underwent injection of either DFO (1 mg in 100 μl saline) or 100 μl of saline alone beneath the dermis every other day for a total of seven treatments.
(§2) After irradiation, fat grafting was performed on the irradiated mice. After informed consent was obtained, lipoaspirate was obtained from three healthy female donors, with no other medical co-morbidities under an approved IRB protocol #2188. Lipoaspirate was allowed to settle for 15 minutes for layers to separate by gravity sedimentation, and then oil and blood layers were removed by vacuum aspiration. The remaining fat layer was centrifuged at 1300 rcf for 3 minutes at 4° C. Any remaining oil and blood was again removed and the remaining fat was transferred into 1 cc syringes for injection through a 14-gauge needle. Fat grafting was performed beneath the scalp by creating a subcutaneous tunnel with the needle and then injecting 200 μl of lipoaspirate in retrograde fashion while pulling the needle out.
Mice were also imaged using a MicroCAT-II in vivo X-Ray micro-CT scanner (Imtek, Inc.; Knoxville, Tenn.) two days after fat graft injection for baseline volume measurements. Fat graft volume retention was then analyzed every two weeks over a total of 8 weeks using microcomputed tomography, and images were reconstructed as three-dimensional surfaces through cubic-spline interpolation. All reconstructions were performed by a single investigator to avoid inter-observer variability.

The test system of series [3] is irradiated scalp. Kind of series: Laser Doppler analysis of perfusion of irradiated scalp, DFO injected beneath the dermis (Example 1). The format is in vivo, mice. The procedure:
as §1, §2
Laser Doppler Analysis (“LDA”) was performed to measure perfusion at the irradiated site using a Perimed PIM 3 laser Doppler perfusion imager (Datavagen, Sweden). The signal generated by the LDA, laser Doppler perfusion index (LDPI), was used for comparative purposes. LDPI is a product of the blood cell velocity and concentration and is represented by a color spectrum, with black/dark blue representing low perfusion and red representing high perfusion. […]
Five images were taken of each mouse, and the average LDPI of the five images was recorded. […]

Series [4] has as its system inguinal fat pads transplanted to parascapular subcutaneous pockets. The settings on record: DFO injected fat grafts; cited from earlier work.

In the case of `CC(=O)N(O)CCCCCNC(=O)CCC(=O)N(O)CCCCCNC(=O)CCC(=O)N(O)CCCCCN` [DFO, Deferoxamine], in series [1], the “dermal thickness of irradiated skin” value was 242.09±7.22 μm. In addition, the “fat graft volume retention” value is listed as 89.24% in series [2] (two weeks after fat grafting, saline control 74.03); 73.17% in series [2] (week 6 after fat grafting, saline 52.40, p<0.05); 71.75% in series [2] (week 8 after fat grafting, saline 49.47, p<0.05). In series [3] (after four treatments of 1 mg DFO every other day beneath the dermis, 176.70±2.59 after irradiation, 265.23±7.01 pre-radiation baseline, mean±SE), the “laser Doppler perfusion index at the irradiated scalp” value came to 205.08±2.30 LDPI. For the same compound, the “laser Doppler perfusion index following fat grafting” value in series [3] (eight weeks following grafting, saline 119.18±4.09, p>0.05) came out at 127.78±2.29 LDPI; in series [3] (two weeks following injection of fat grafts, saline control 65.72±2.02, p<0.05), 86.33±2.00 LDPI. In addition, the “inflammation and fibrosis in fat grafts” value in series [4] was “more inflammation and fibrosis”.
